Source: PubChem BioAssay (NCI)
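Briefly, cells in 96-well plates were exposed to five compound concentrations for 48 h, and endpoints were estimated by linear interpolation. The concentration for full growth arrest is given as TGI.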 Where a SMILES comes first, the peptide text is derived from it. [ ]: non-standard residue; d: D form. The star is where a group is joined. ξ: configuration not given here. ξD = NC(CC(=O)O)C(=O)O; Ac3c = NC1(C(=O)O)CC1; Boc = CC(C)(C)OC(=O)*; OtBu = CC(C)(C)O*

Columns and labels:
Test in all cases: NCI-60 cell line screen, 48 h
[1] = system: K-562 leukemia
[2] = system: NCI/ADR-RES ovarian
[3] = system: TK-10 renal
[4] = system: NCI-H460 lung
[5] = system: HS 578T breast
[6] = system: SF-539 CNS
[7] = system: SNB-19 CNS
[8] = system: NCI-H23 lung
[9] = system: DU-145 prostate
[10] = system: MCF7 breast
[11] = system: M14 melanoma
[12] = system: SK-MEL-28 melanoma
[13] = system: CAKI-1 renal

Measured: TGI

COC(=O)C1(NC(=O)C(CC(=O)OC(C)(C)C)NC(=O)OC(C)(C)C)CC1 (stereo unspecified) (Boc-[ξD](OtBu)-[Ac3c]-OMe)
> 100 µM: all assays above

[N-]=[N+]=NC[C@H]1OCO[C@H](CN=[N+]=[N-])[C@H]2OCCOCCOc3ccccc3OCCOCCO[C@@H]21
> 100 µM: all assays above
